The kinase profiling compilation of Christmann-Franck et al. (2016)

Assays:
Assay in all cases: radiometric filter-binding kinase assay, Kinase HotSpot
Settings in all cases: compound 0.5 µM; ATP 10 µM
PASK (human) = PASK (human) (UniProt Q96RG2)
CDC42BPA (human) = CDC42BPA (human) (UniProt Q5VT25)
DSTYK (human) = DSTYK (human) (UniProt Q6XUX3)
EPHA1 (human) = EPHA1 (human) (UniProt P21709)
STK16 (human) = STK16 (human) (UniProt O75716)
CSF1R (human) = CSF1R (human) (UniProt P07333)
RPS6KA1 KD1 KD2 (human) = RPS6KA1 KD1 KD2 (human) (UniProt Q15418)
ACVRL1 (human) = ACVRL1 (human) (UniProt P37023)
NEK9 (human) = NEK9 (human) (UniProt Q8TD19)
ULK2 (human) = ULK2 (human) (UniProt Q8IYT8)
GSK3A (human) = GSK3A (human) (UniProt P49840)
DCLK2 (human) = DCLK2 (human) (UniProt Q8N568)
INSRR (human) = INSRR (human) (UniProt P14616)
MAP4K2 (human) = MAP4K2 (human) (UniProt Q12851)
MYLK2 (human) = MYLK2 (human) (UniProt Q9H1R3)
EPHB2 (human) = EPHB2 (human) (UniProt P29323)
CDK5 CDK5R1 p35 (human) = CDK5 CDK5R1 p35 (human) (UniProt Q00535+Q15078)
MAPK13 (human) = MAPK13 (human) (UniProt O15264)
BRSK2 (human) = BRSK2 (human) (UniProt Q8IWQ3)
CDK2 CCNA2 (human) = CDK2 CCNA2 (human) (UniProt P24941+P20248)
CDK2 CCNA2 (human), sequence (P20248 whole entry, looked up, other chains not shown): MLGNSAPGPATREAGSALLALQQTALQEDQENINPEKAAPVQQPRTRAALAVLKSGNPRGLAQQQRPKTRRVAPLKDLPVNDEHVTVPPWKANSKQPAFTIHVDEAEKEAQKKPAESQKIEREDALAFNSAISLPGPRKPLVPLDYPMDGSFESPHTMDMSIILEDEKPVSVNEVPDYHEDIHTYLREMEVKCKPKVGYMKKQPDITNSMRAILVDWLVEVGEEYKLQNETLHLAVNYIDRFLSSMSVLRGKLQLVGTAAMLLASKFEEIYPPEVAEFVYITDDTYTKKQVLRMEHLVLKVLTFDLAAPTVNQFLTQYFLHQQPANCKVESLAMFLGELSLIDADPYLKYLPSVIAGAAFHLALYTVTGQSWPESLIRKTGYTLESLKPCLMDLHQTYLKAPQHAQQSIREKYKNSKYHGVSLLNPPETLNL

BRSK1 (human) = BRSK1 (human) (UniProt Q8TDC3)
PRKACA (human) = PRKACA (human) (UniProt P17612)
EPHB3 (human) = EPHB3 (human) (UniProt P54753)
PIM2 (human) = PIM2 (human) (UniProt Q9P1W9)
MAP2K2 (human) = MAP2K2 (human) (UniProt P36507)
MAP2K2 (human), sequence (P36507 whole entry, looked up): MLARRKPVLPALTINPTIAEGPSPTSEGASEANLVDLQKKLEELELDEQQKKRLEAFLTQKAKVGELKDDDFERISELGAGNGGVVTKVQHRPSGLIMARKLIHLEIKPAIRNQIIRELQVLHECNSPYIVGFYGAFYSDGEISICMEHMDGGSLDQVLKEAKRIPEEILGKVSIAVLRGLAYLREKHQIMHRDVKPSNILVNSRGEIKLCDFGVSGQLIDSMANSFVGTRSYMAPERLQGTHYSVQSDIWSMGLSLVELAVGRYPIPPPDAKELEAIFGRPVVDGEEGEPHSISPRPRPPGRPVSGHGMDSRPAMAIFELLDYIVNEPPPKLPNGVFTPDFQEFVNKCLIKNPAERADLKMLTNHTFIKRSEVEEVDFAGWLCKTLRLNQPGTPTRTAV

BLK (human) = BLK (human) (UniProt P51451)
FGFR3 (human) = FGFR3 (human) (UniProt P22607)
MAP3K10 (human) = MAP3K10 (human) (UniProt Q02779)
LRRK2 (human) = LRRK2 (human) (UniProt Q5S007)
LRRK2 (human), sequence (Q5S007 whole entry, looked up): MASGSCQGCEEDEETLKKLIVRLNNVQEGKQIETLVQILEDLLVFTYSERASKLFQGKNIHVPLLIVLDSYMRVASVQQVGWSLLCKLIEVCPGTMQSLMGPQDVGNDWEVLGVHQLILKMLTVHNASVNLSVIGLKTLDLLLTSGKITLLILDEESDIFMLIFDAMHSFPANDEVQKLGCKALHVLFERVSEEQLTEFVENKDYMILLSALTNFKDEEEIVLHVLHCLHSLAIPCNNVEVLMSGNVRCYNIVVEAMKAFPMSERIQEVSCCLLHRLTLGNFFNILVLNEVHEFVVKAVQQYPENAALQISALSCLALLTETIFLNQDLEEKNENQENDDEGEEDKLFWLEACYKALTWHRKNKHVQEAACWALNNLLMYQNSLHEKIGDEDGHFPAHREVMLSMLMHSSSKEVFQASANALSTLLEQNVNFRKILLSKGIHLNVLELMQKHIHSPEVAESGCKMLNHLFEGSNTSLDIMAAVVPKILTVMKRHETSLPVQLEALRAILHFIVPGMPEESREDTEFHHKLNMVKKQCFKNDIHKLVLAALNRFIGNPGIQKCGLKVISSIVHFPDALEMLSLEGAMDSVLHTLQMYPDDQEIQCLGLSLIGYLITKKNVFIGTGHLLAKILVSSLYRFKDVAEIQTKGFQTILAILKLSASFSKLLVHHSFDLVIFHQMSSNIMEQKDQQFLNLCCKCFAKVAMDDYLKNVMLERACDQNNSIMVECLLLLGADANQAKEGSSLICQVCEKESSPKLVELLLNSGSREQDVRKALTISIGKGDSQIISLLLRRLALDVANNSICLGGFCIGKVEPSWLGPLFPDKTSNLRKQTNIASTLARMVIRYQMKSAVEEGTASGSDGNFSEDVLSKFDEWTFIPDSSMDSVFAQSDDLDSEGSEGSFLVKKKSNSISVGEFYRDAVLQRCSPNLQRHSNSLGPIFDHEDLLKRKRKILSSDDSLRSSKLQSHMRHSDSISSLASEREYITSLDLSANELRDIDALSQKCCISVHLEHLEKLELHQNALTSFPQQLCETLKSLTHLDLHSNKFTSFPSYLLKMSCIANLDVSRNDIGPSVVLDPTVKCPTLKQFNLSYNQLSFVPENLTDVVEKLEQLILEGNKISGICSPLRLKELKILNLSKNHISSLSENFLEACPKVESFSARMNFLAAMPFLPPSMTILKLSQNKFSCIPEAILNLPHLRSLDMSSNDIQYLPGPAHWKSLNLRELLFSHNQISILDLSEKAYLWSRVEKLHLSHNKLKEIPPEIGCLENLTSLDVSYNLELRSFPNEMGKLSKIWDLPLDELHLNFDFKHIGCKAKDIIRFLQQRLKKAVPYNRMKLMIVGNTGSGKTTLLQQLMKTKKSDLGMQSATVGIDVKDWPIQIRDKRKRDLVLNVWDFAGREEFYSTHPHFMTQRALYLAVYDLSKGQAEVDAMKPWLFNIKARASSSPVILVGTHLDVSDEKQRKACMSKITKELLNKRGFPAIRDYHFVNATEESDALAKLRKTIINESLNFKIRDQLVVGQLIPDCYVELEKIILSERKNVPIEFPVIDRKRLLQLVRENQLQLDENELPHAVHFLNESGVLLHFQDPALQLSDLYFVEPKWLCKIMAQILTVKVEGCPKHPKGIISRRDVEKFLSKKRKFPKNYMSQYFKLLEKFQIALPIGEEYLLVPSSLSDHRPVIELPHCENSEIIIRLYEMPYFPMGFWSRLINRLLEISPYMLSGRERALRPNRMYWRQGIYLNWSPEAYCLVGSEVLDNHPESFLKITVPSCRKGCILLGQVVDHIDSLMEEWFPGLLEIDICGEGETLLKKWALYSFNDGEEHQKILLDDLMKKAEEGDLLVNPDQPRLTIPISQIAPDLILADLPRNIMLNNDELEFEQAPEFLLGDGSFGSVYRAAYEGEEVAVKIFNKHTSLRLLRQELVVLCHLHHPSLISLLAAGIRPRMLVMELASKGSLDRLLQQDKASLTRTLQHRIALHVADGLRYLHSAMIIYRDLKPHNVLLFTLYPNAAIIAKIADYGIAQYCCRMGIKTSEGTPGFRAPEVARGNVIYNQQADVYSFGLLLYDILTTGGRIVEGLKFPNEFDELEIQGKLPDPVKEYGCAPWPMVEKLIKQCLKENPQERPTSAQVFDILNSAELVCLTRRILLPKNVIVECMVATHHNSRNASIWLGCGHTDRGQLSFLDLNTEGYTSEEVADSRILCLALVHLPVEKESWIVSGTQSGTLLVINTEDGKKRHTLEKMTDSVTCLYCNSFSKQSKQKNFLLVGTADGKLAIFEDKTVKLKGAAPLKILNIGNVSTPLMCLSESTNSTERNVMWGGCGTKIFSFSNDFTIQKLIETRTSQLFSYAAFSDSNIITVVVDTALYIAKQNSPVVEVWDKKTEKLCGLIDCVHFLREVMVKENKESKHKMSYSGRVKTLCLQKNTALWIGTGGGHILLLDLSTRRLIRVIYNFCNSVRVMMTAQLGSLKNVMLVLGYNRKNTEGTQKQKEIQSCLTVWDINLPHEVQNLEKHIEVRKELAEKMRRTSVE

PAK6 (human) = PAK6 (human) (UniProt Q9NQU5)
FRK (human) = FRK (human) (UniProt P42685)
FRK (human), sequence (P42685 whole entry, looked up): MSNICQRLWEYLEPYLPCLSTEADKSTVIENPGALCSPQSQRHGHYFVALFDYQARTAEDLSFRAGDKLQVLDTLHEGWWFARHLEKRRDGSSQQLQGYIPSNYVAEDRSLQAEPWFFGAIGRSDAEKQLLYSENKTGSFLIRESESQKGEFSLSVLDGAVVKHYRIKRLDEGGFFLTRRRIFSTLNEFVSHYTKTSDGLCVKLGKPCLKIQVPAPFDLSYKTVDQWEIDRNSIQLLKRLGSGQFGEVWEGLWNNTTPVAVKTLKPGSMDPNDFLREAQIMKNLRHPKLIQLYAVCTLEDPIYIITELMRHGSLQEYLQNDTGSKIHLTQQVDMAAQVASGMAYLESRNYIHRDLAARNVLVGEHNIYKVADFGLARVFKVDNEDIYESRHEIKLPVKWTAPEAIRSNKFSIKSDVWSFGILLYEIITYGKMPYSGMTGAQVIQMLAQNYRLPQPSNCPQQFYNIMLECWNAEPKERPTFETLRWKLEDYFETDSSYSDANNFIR

LTK (human) = LTK (human) (UniProt P29376)
LTK (human), sequence (P29376 whole entry, looked up): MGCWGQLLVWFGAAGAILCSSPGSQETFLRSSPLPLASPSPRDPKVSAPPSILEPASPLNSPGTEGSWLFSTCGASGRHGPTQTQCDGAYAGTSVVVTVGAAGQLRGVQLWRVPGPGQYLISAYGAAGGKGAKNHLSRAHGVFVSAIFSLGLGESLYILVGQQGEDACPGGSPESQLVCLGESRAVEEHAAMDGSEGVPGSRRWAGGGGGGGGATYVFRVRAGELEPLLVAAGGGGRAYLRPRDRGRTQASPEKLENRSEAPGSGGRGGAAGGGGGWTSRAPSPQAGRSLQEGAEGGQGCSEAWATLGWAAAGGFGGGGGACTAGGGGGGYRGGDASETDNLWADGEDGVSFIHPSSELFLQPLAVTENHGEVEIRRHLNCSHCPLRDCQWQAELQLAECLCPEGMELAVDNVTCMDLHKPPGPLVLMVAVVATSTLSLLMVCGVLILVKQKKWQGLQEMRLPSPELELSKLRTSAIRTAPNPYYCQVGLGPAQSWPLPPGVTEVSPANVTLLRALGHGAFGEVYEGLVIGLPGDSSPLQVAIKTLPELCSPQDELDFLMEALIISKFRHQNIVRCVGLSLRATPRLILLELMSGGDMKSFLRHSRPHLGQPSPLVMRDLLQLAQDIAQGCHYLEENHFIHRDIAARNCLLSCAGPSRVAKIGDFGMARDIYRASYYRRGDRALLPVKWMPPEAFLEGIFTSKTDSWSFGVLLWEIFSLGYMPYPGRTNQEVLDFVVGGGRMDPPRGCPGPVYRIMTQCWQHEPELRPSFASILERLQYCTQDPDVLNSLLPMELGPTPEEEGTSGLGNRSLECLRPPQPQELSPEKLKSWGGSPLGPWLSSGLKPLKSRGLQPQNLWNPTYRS

EPHA6 (human) = EPHA6 (human) (UniProt Q9UF33)
ULK1 (human) = ULK1 (human) (UniProt O75385)
MAPKAPK3 (human) = MAPKAPK3 (human) (UniProt Q16644)
RPS6KA3 KD1 KD2 (human) = RPS6KA3 KD1 KD2 (human) (UniProt P51812)
PHKG1 (human) = PHKG1 (human) (UniProt Q16816)
MAP2K1 (human) = MAP2K1 (human) (UniProt Q02750)
AKT1 (human) = AKT1 (human) (UniProt P31749)
MARK3 (human) = MARK3 (human) (UniProt P27448)
CLK2 (human) = CLK2 (human) (UniProt P49760)
CAMKK2 (human) = CAMKK2 (human) (UniProt Q96RR4)

STK16 (human), sequence (O75716 whole entry, looked up): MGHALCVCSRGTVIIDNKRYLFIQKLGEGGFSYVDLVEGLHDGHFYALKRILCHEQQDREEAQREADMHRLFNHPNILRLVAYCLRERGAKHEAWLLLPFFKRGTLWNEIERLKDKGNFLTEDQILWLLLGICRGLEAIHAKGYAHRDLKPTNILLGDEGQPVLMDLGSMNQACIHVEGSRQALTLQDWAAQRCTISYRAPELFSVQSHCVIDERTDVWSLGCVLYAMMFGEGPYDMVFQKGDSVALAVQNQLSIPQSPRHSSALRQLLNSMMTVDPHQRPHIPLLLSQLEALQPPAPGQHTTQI

CCC(=O)Nc1ccc2ncnc(Nc3cccc(Br)c3)c2c1
residual activity (PASK (human)): 88.7% | residual activity (CDC42BPA (human)): 101% | residual activity (DSTYK (human)): 91.3% | residual activity (EPHA1 (human)): 89.5% | residual activity (STK16 (human)): 99.6% | residual activity (CSF1R (human)): 98.9% | residual activity (RPS6KA1 KD1 KD2 (human)): 88.7% | residual activity (ACVRL1 (human)): 97.4% | residual activity (NEK9 (human)): 105% | residual activity (ULK2 (human)): 118% | residual activity (GSK3A (human)): 98.2% | residual activity (DCLK2 (human)): 89% | residual activity (INSRR (human)): 98.4% | residual activity (MAP4K2 (human)): 90.5% | residual activity (MYLK2 (human)): 96.4% | residual activity (EPHB2 (human)): 95.1% | residual activity (CDK5 CDK5R1 p35 (human)): 100% | residual activity (MAPK13 (human)): 106% | residual activity (BRSK2 (human)): 94.3% | residual activity (CDK2 CCNA2 (human)): 95.1% | residual activity (BRSK1 (human)): 83.3% | residual activity (PRKACA (human)): 94.6% | residual activity (EPHB3 (human)): 89.4% | residual activity (PIM2 (human)): 90.3% | residual activity (MAP2K2 (human)): 85.1% | residual activity (BLK (human)): 90.7% | residual activity (FGFR3 (human)): 93.2% | residual activity (MAP3K10 (human)): 91.2% | residual activity (LRRK2 (human)): 92.4% | residual activity (PAK6 (human)): 101% | residual activity (FRK (human)): 66.8% | residual activity (LTK (human)): 81% | residual activity (EPHA6 (human)): 79.5% | residual activity (ULK1 (human)): 103% | residual activity (MAPKAPK3 (human)): 90.2% | residual activity (RPS6KA3 KD1 KD2 (human)): 95% | residual activity (PHKG1 (human)): 92.4% | residual activity (MAP2K1 (human)): 105% | residual activity (AKT1 (human)): 95.8% | residual activity (MARK3 (human)): 86.1% | residual activity (CLK2 (human)): 101% | residual activity (CAMKK2 (human)): 84.3%

Nc1ncnc2[nH]nc(Nc3ccc(F)cc3)c12
residual activity (PASK (human)): 91.8% | residual activity (CDC42BPA (human)): 103% | residual activity (DSTYK (human)): 109% | residual activity (EPHA1 (human)): 101% | residual activity (STK16 (human)): 108% | residual activity (CSF1R (human)): 101% | residual activity (RPS6KA1 KD1 KD2 (human)): 82.2% | residual activity (ACVRL1 (human)): 108% | residual activity (NEK9 (human)): 97.9% | residual activity (ULK2 (human)): 110% | residual activity (GSK3A (human)): 88.6% | residual activity (DCLK2 (human)): 99.5% | residual activity (INSRR (human)): 96.9% | residual activity (MAP4K2 (human)): 88.9% | residual activity (MYLK2 (human)): 87.3% | residual activity (EPHB2 (human)): 91.6% | residual activity (CDK5 CDK5R1 p35 (human)): 98.6% | residual activity (MAPK13 (human)): 104% | residual activity (BRSK2 (human)): 60.6% | residual activity (CDK2 CCNA2 (human)): 88.7% | residual activity (BRSK1 (human)): 63% | residual activity (PRKACA (human)): 96.8% | residual activity (EPHB3 (human)): 87.7% | residual activity (PIM2 (human)): 89.3% | residual activity (MAP2K2 (human)): 90% | residual activity (BLK (human)): 101% | residual activity (FGFR3 (human)): 101% | residual activity (MAP3K10 (human)): 85.9% | residual activity (LRRK2 (human)): 89.6% | residual activity (PAK6 (human)): 109% | residual activity (FRK (human)): 90% | residual activity (LTK (human)): 92.5% | residual activity (EPHA6 (human)): 49.3% | residual activity (ULK1 (human)): 95.6% | residual activity (MAPKAPK3 (human)): 94% | residual activity (RPS6KA3 KD1 KD2 (human)): 89.8% | residual activity (PHKG1 (human)): 87.5% | residual activity (MAP2K1 (human)): 101% | residual activity (AKT1 (human)): 93.3% | residual activity (MARK3 (human)): 92.5% | residual activity (CLK2 (human)): 92.4% | residual activity (CAMKK2 (human)): 83.6%

N#C/C(=C(/N)Sc1ccc(N)cc1)c1ccccc1C(F)(F)F
residual activity (PASK (human)): 101% | residual activity (CDC42BPA (human)): 103% | residual activity (DSTYK (human)): 113% | residual activity (EPHA1 (human)): 100% | residual activity (STK16 (human)): 98.4% | residual activity (CSF1R (human)): 101% | residual activity (RPS6KA1 KD1 KD2 (human)): 88.7% | residual activity (ACVRL1 (human)): 106% | residual activity (NEK9 (human)): 99.2% | residual activity (ULK2 (human)): 115% | residual activity (GSK3A (human)): 110% | residual activity (DCLK2 (human)): 99.1% | residual activity (INSRR (human)): 88.1% | residual activity (MAP4K2 (human)): 85.7% | residual activity (MYLK2 (human)): 100% | residual activity (EPHB2 (human)): 101% | residual activity (CDK5 CDK5R1 p35 (human)): 103% | residual activity (MAPK13 (human)): 104% | residual activity (BRSK2 (human)): 102% | residual activity (CDK2 CCNA2 (human)): 95.9% | residual activity (BRSK1 (human)): 91.2% | residual activity (PRKACA (human)): 109% | residual activity (EPHB3 (human)): 96.7% | residual activity (PIM2 (human)): 103% | residual activity (MAP2K2 (human)): 94.5% | residual activity (BLK (human)): 111% | residual activity (FGFR3 (human)): 98.5% | residual activity (MAP3K10 (human)): 88.1% | residual activity (LRRK2 (human)): 100% | residual activity (PAK6 (human)): 107% | residual activity (FRK (human)): 102% | residual activity (LTK (human)): 100% | residual activity (EPHA6 (human)): 92.3% | residual activity (ULK1 (human)): 99.6% | residual activity (MAPKAPK3 (human)): 102% | residual activity (RPS6KA3 KD1 KD2 (human)): 100% | residual activity (PHKG1 (human)): 95.8% | residual activity (MAP2K1 (human)): 97.9% | residual activity (AKT1 (human)): 101% | residual activity (MARK3 (human)): 107% | residual activity (CLK2 (human)): 100% | residual activity (CAMKK2 (human)): 85.5%
